According to patent US9302999B2, “Substituted triazoles as herbicides” (E. I. DU PONT DE NEMOURS AND COMPANY, priority 2012, dated 2016):
Like-named read-outs stand apart in the source and are kept apart here.

How the values were obtained:
Type in all cases: in vivo
[1] = tested on: morningglory (Ipomoea coccinea); assay: Test C pre-/postemergence: morningglory; settings: Postemergence
Summary of the method: (§1)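 Visual injury scored 0–100 (100 = complete control) against untreated controls after 13–15 greenhouse days. Surfactant-containing solvent formulations applied either to soil after sowing (loam/sand) or over 1- to 4-leaf plants, 2–18 cm tall.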

[2] = tested on: foxtail, giant (giant foxtail, Setaria faberii); assay: Test A pre-/postemergence: foxtail, giant; settings: Setaria faberi, 240 h; for pest or weed control at 125 g/ha: 125 g ai/ha; for pest or weed control at 500 g/ha: 500 g ai/ha
Summary of the method: (§2)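 Seeds were sown in loam/sand blend and sprayed preemergence (directed soil spray) and, simultaneously, postemergence at 2–10 cm, one- to two-leaf stage, using compounds in non-phytotoxic solvent with surfactant. After ~10 days in greenhouse, injury was rated visually versus untreated controls, 0 (no effect) to 100 (complete control).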

[3] = tested on: morningglory (Ipomoea spp.); assay: Test A pre-/postemergence: morningglory; settings: Ipomoea, 240 h; for pest or weed control at 500 g/ha: 500 g ai/ha
Summary of the method: as §2

[4] = tested on: barnyardgrass (Echinochloa crus-galli); assay: Test A pre-/postemergence: barnyardgrass; settings: Echinochloa crus-galli, 240 h; for pest or weed control at 125 g/ha: 125 g ai/ha; for pest or weed control at 500 g/ha: 500 g ai/ha
Summary of the method: as §2

[5] = tested on: winter wheat (Triticum aestivum); assay: Test C pre-/postemergence: winter wheat
Excerpt: (§3) Seeds of plant species selected from blackgrass (Alopecurus myosuroides), bromegrass, downy (downy bromegrass, Bromus tectorum), foxtail, green (green foxtail, Setaria viridis), ryegrass, Italian (Italian ryegrass, Lolium multiflorum), winter wheat (Triticum aestivum), wild oat (Avena fatua), galium (catchweed bedstraw, Galium aparine), bermudagrass (Cynodon dactylon), surinam grass (Brachiaria decumbens), cocklebur (common cocklebur, Xanthium strumarium), corn (Zea mays), large crabgrass (Digitaria sanguinalis), woolly cupgrass (Eriochloa villosa), foxtail, giant (giant foxtail, Setaria faberii), goosegrass (Eleusine indica), johnsongrass (Sorghum halepense), kochia (Kochia scoparia), lambsquarters (Chenopodium album), morningglory (Ipomoea coccinea), nightshade (eastern black nightshade, Solanum ptycanthum), nutsedge, yellow (yellow nutsedge, Cyperus esculentus), pigweed (Amaranthus retroflexus), ragweed (common ragweed, Ambrosia elation), soybean (Glycine max), common (oilseed) sunflower (Helianthus annuus), Russian thistle (Salsola kali) and velvetleaf (Abutilon theophrasti) were planted into a blend of loam soil and sand and treated preemergence with test chemicals formulated in a non-phytotoxic solvent mixture which included a surfactant.
(§4) At the same time, plants selected from these crop and weed species and also barley (winter barley, Hordeum vulgare), canarygrass (Phalaris minor), chickweed (common chickweed, Stellaria media) windgrass (Apera spica-venti) and deadnettle (henbit deadnettle, Lamium amplexicaule) were planted in pots containing Redi-Earth® planting medium (Scotts Company, 14111 Scottslawn Road, Marysville, Ohio 43041) comprising spaghnum peat moss, vermiculite, wetting agent and starter nutrients and treated with postemergence applications of test chemicals formulated in the same manner. Plants ranged in height from 2 to 18 cm (1- to 4-leaf stage) for postemergence treatments.
(§5) Treated plants and controls were maintained in a greenhouse for 13 to 15 days, after which time all species were compared to controls and visually evaluated. Plant response ratings, summarized in Table C, are based on a scale of 0 to 100 where 0 is no effect and 100 is complete control. A dash (-) response means no test result.

[6] = tested on: pigweed (Amaranthus retroflexus); assay: Test A pre-/postemergence: pigweed; settings: Amaranthus retroflexus, 240 h; for pest or weed control at 125 g/ha: 125 g ai/ha; for pest or weed control at 500 g/ha: 500 g ai/ha
Summary of the method: as §2

[7] = tested on: chickweed (common chickweed, Stellaria media); assay: Test C postemergence: chickweed
Summary of the method: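 Visual ratings of 0 (no effect) to 100 (complete control) were made against controls 13-15 days after a postemergence spray, with plants kept in a greenhouse. Plants were 2-18 cm tall (1- to 4-leaf stage) in Redi-Earth peat/vermiculite medium at treatment.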

[8] = tested on: wheat (Triticum aestivum); assay: Test A pre-/postemergence: wheat; settings: Triticum aestivum, 240 h; for plant injury at 125 g/ha: 125 g ai/ha; for plant injury at 500 g/ha: 500 g ai/ha
Summary of the method: as §2

[9] = tested on: velvetleaf (Abutilon theophrasti); assay: Test C pre-/postemergence: velvetleaf; settings: Postemergence
Summary of the method: as §1

[10] = tested on: johnsongrass (Sorghum halepense); assay: Test C pre-/postemergence: johnsongrass; settings: Postemergence
Summary of the method: as §1

[11] = tested on: nutsedge, yellow (yellow nutsedge, Cyperus esculentus); assay: Test C pre-/postemergence: nutsedge, yellow; settings: Postemergence
Excerpt: as §3, §4, §5

corn (Zea mays) = assay: Test C pre-/postemergence: corn; settings: Postemergence
Summary of the method: as §1

[12] = 31 g ai/ha, scale 0 to 100 (0 no effect, 100 complete control)
[13] = 62 g ai/ha, scale 0 to 100 (0 no effect, 100 complete control)
[14] = 125 g ai/ha, scale 0 to 100, 0 no effect, 100 complete control

## Cc1nn(-c2ccc(F)cc2)nc1Cc1ccnc(C(F)(F)F)c1 [Compound 16, 4-[[2-(4-fluorophenyl)-5-methyl-2H-1,2,3-triazol-4-yl]methyl]-2-(trifluoromethyl)pyridine]
[1]; [12]
  Plant response rating, Morningglory: 50
[1]; [13]
  Plant response rating, Morningglory: 75
[1]; [14]
  Plant response rating, Morningglory: 75
[1]; 250 g ai/ha, scale 0 to 100
  Plant response rating, Morningglory: 80
[2]; post-emergence, Postemergence, 0 to 100 scale, 0 is no effect, 100 is complete control, read-out: Foxtail, Giant plant response rating
  pest or weed control at 125 g/ha: 90%
[2]; post-emergence, Postemergence, visual rating on 0 to 100 scale (0 no effect, 100 complete control), approximately ten days, read-out: Foxtail, Giant plant response rating
  pest or weed control at 500 g/ha: 90%
[2]; pre-emergence, Preemergence, 0 to 100 scale (0 no effect, 100 complete control), read-out: Plant response rating, Foxtail, Giant
  pest or weed control at 125 g/ha: 100%
[2]; pre-emergence, Preemergence, 0 to 100 scale, 0 is no effect, 100 is complete control, read-out: Plant response rating, Foxtail, Giant
  pest or weed control at 500 g/ha: 100%
[3]; post-emergence, Postemergence, 125 g ai/ha, 0 to 100 scale, 0 is no effect, 100 is complete control, read-out: Morningglory plant response rating
  pest or weed control at 125 g/ha: 80%
[3]; post-emergence, Postemergence, visual rating on 0 to 100 scale (0 no effect, 100 complete control), approximately ten days, read-out: Morningglory plant response rating
  pest or weed control at 500 g/ha: 100%
[3]; pre-emergence, Preemergence, 0 to 100 scale, 0 is no effect, 100 is complete control, read-out: Plant response rating, Morningglory
  pest or weed control at 500 g/ha: 80%
[4]; post-emergence, Postemergence, 0 to 100 scale, 0 is no effect, 100 is complete control, read-out: Barnyardgrass plant response rating
  pest or weed control at 125 g/ha: 90%
[4]; post-emergence, Postemergence, visual rating on 0 to 100 scale (0 no effect, 100 complete control), approximately ten days, read-out: Barnyardgrass plant response rating
  pest or weed control at 500 g/ha: 100%
[4]; pre-emergence, Preemergence, 0 to 100 scale (0 no effect, 100 complete control), read-out: Plant response rating, Barnyardgrass
  pest or weed control at 125 g/ha: 90%
[4]; pre-emergence, Preemergence, 0 to 100 scale, 0 is no effect, 100 is complete control, read-out: Plant response rating, Barnyardgrass
  pest or weed control at 500 g/ha: 100%
[5]; Postemergence, 31 g ai/ha, scale 0 to 100 (0 no effect, 100 complete control)
  Plant response rating, Wheat: 5
[5]; Postemergence, 62 g ai/ha, scale 0 to 100 (0 no effect, 100 complete control)
  Plant response rating, Wheat: 20
[5]; Postemergence, 125 g ai/ha, scale 0 to 100, 0 no effect, 100 complete control
  Plant response rating, Wheat: 25
[5]; Postemergence, 250 g ai/ha, scale 0 to 100
  Plant response rating, Wheat: 30
[5]; Preemergence, 31 g ai/ha, scale of 0 to 100, 0 is no effect, 100 is complete control
  Plant response rating, Wheat: 0
[5]; Preemergence, 62 g ai/ha, scale of 0 to 100, 0 is no effect, 100 is complete control
  Plant response rating, Wheat: 5
[5]; Preemergence, 125 g ai/ha, scale 0 to 100, 0 no effect, 100 complete control
  Plant response rating, Wheat: 15
[5]; Preemergence, 250 g ai/ha, scale 0 to 100, 0 no effect, 100 complete control
  Plant response rating, Wheat: 45
[6]; post-emergence, Postemergence, 0 to 100 scale, 0 is no effect, 100 is complete control, read-out: Pigweed plant response rating
  pest or weed control at 125 g/ha: 100%
[6]; post-emergence, Postemergence, visual rating on 0 to 100 scale (0 no effect, 100 complete control), approximately ten days, read-out: Pigweed plant response rating
  pest or weed control at 500 g/ha: 100%
[6]; pre-emergence, Preemergence, 0 to 100 scale (0 no effect, 100 complete control), read-out: Plant response rating, Pigweed
  pest or weed control at 125 g/ha: 90%
[6]; pre-emergence, Preemergence, 0 to 100 scale, 0 is no effect, 100 is complete control, read-out: Plant response rating, Pigweed
  pest or weed control at 500 g/ha: 100%
[7]; [12]
  Plant response rating, Chickweed: 85
[7]; [13]
  Plant response rating, Chickweed: 98
[7]; [14]
  Plant response rating, Chickweed: 100
[7]; 250 g ai/ha, scale 0 to 100
  Plant response rating, Chickweed: 100
[8]; post-emergence, Postemergence, 0 to 100 scale, 0 is no effect, 100 is complete control, read-out: Wheat plant response rating
  plant injury at 125 g/ha: 20%
[8]; post-emergence, Postemergence, visual rating on 0 to 100 scale (0 no effect, 100 complete control), approximately ten days, read-out: Wheat plant response rating
  plant injury at 500 g/ha: 30%
[8]; pre-emergence, Preemergence, 0 to 100 scale (0 no effect, 100 complete control), read-out: Plant response rating, Wheat
  plant injury at 125 g/ha: 10%
[8]; pre-emergence, Preemergence, 0 to 100 scale, 0 is no effect, 100 is complete control, read-out: Plant response rating, Wheat
  plant injury at 500 g/ha: 20%
[9]; [12]
  Plant response rating, Velvetleaf: 10
[9]; [13]
  Plant response rating, Velvetleaf: 65
[9]; [14]
  Plant response rating, Velvetleaf: 65
[9]; 250 g ai/ha, scale 0 to 100
  Plant response rating, Velvetleaf: 85
[10]; [12]
  Plant response rating, Johnsongrass: 0
[10]; [13]
  Plant response rating, Johnsongrass: 0
[10]; [14]
  Plant response rating, Johnsongrass: 45
[10]; 250 g ai/ha, scale 0 to 100
  Plant response rating, Johnsongrass: 45
[11]; [12]
  Plant response rating, Nutsedge, Yellow: 0
[11]; [13]
  Plant response rating, Nutsedge, Yellow: 0
[11]; [14]
  Plant response rating, Nutsedge, Yellow: 0
[11]; 250 g ai/ha, scale 0 to 100
  Plant response rating, Nutsedge, Yellow: 0
Corn (Zea mays); [12]
  Plant response rating, Corn: 5
Corn (Zea mays); [13]
  Plant response rating, Corn: 15
Corn (Zea mays); [14]
  Plant response rating, Corn: 15
Corn (Zea mays); 250 g ai/ha, scale 0 to 100
  Plant response rating, Corn: 15
